Experimental data from patent US7855211B2, “Protein kinase inhibitors” (Eli Lilly and Company, priority 2008, dated 2010).

Legend:
CDK4 = target: T1, CDK4 (Homo sapiens, UniProt P11802); test: CDK4 Inhibition Assay; assay type: biochemical; conditions: CDK4 kinase, 33P-ATP, CTRF substrate
T1 construct: purchased Proqinase 0142-0373-1
Description: All ligands, radiolabels, solvents, and reagents employed in the following assays are readily available from commercial sources, or can be readily synthesized by one skilled in the art.
10 μL of test compound in 20% DMSO, 20 μL of adenosine 5′-triphosphate (ATP) and C-Terminal Retinoblastoma Fragment (CTRF) (Upstate cat # 12-439) solution, and 10 μL of enzyme solution are mixed in a 96 well plate. The ATP and CRTF solution is prepared from a mixture of 40 μM ATP, 0.16 μCi [^33P] ATP and 1 μM CTRF diluted in kinase buffer of 68 mM 4-(2-hydroxyethyl)-1-piperazineethanesulfonic acid (HEPES) pH 7.4, 6.72 mM MgCl2, 6.72 mM dithiothreitol (DTT), and 0.013% TRITON™ X-100. The enzyme solution is prepared from 8 ng CDK4 enzyme (Proqinase cat # 0142-0373-1) diluted in the kinase buffer described above. Test compounds are serially diluted 1:3 in 20% DMSO to create a 10 point curve at a starting concentration of 20 μM. 20% DMSO buffer alone without added test compound is employed as a control, 500 mM ethylene diamine tetraacetic acid (EDTA) is used to determine the level of background ^33P in the absence of enzyme activity. Reagents are mixed and incubated for 90 min at 20° C. […] The wells are washed four times with 0.5% H3PO4 and the radioactivity incorporated is determined with a microplate scintillation counter (Microbeta Trilux, Wallac). […]

Pim-1 = Pim-1 (Homo sapiens, UniProt P11309); test: Assay for Inhibition of PIM1 Kinase; assay type: biochemical
Pim-1, sequence (P11309 whole entry): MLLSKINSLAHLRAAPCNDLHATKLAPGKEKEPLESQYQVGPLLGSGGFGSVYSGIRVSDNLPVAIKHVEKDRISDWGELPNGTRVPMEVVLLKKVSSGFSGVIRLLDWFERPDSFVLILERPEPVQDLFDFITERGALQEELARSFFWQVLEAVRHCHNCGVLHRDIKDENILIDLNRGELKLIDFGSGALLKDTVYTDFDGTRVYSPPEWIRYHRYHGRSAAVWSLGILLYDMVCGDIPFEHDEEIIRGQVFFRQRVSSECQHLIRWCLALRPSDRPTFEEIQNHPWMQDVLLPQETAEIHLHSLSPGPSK
Description: Pim-1 (human, 0.46 nM final concentration) is incubated with 8 mM MOPS pH 7.0, 0.2 mM EDTA, 100 μM of an appropriate substrate peptide (see Pim-1 kinase inhibition assay protocol as described in Chen, L. S. et al. (2009) Blood, DOI: 10.1182/blood-2009-03-212852), 10 mM MgAcetate and [γ-^33P-ATP] (specific activity approx. 500 cpm/pmol, concentration as required). The reaction is initiated by the addition of the MgATP mix and then incubated for 40 minutes at room temperature. The reaction is stopped by the addition of 3% phosphoric acid solution. 10 μL of the reaction is then spotted onto a P30 filtermat and washed three times for 5 minutes in 75 mM phosphoric acid and once in methanol prior to drying and scintillation counting. For compound inhibition testing, compounds provided as 10 mM stocks in 100% DMSO are diluted 1:10 in 100% DMSO to give a 50× stock of the top concentration of the curve. The 50× stock is then serially diluted 1:3 in 100% DMSO to create a 10 point concentration-response curve and diluted 1:50 (20 μM to 0.001 μM final in 2% final DMSO concentration) in the reaction mixture to determine compound activity. […] The percent inhibition determined from the controls on each plate and ten-point compound concentration data were then fit to a four-parameter logistic equation using ACTIVITYBASE 4.0. […]

[1] = system: phosphorylation of Retinoblastoma Protein (pRb); test: Inhibition of Phosphorylation of Retinoblastoma Protein (pRb) in COLO 205 cells; assay type: cell-based; conditions: Homo sapiens, 24 h exposure, read-out: IC50 (% phosphoRB positive)
Description: COLO 205 Cells from the American Type Culture Collection (ATCC) are plated at 2000 cells/well in 96 well […] BIOCOAT™ plates, and are incubated in RPMI 1640 medium (e.g., GIBCO, catalog #52400-025) with 10% Fetal Bovine Serum (FBS e.g. Gibco cat #11000-144) and 1% sodium pyruvate (Gibco catalog #11360-070) in 37° C., 5% CO2 for 24 h. Cells are treated by adding test compound to the medium, dosing at 10 points of 1:3 dilutions across the range of 20 μM to 0.001 μM, and with final DMSO concentration at 0.25%. After 24 h exposure to the compounds, cells are fixed with the PREFER™ fixative [Anatech LTD., Cat # 414] for 30 min at RT, then are permeabilized with 0.1% TRITON® X100 in phosphate buffered saline (PBS) solution for 15 min at RT. […] Fluorescence plates are scanned with ACUMEN EXPLORER™ [Laser-scanning fluorescence microplate cytometer (comprising of 488 nm argon ion laser excitation and multiple photomultiplier tube detection), manufactured by TTP LABTECH LTD] to measure phosphorylation of Rb protein and DNA content. […] Assay outputs are percentage of each identified subpopulations, % phosphoRB positive, % 2 N and % 4 N. The IC50 and EC50 values are determined by curve fitting to a four parameter logistic for each output using ACTIVITY BASE™. […]

[2] = Rat Oral Bioavailability Assay; assay type: in vivo; conditions: plasma, 1 mg/kg, male Sprague Dawley rats, oral suspension vs intravenous, read-out: Fraction bioavailable relative to the intravenous dose (% F)
Description: Male Sprague Dawley rats (body weight range 250-320 g) with indwelling femoral arterial cannulae are obtained from Charles River, Wilmington, Mass. 01887, USA. Test compound is administered intravenously in solution (2 mL/kg) in: 10% N-methyl pyrollidone/18% Captisol® in 22.5 mM phosphate buffer, pH 3. The final drug concentration is 0.25 mg/mL (free base equivalents). Blood samples are obtained using the indwelling cannula over 24 h. The animals are then administered an oral dose of test compound in suspension (5 mL/kg) in 1% w/v hydroxyethylcellulose/0.25% v/v polysorbate 80/0.05% v/v antifoam in purified water. The final drug concentration is 0.2 mg/mL (free base equivalents). […]
An internal standard compound (for normalisation) in acetonitrile/methanol (1:1, v/v) is added to samples of plasma to precipitate protein and the samples are centrifuged prior to analysis. The supernatants are analysed by injection and rapid gradient elution on a Javelin Betasil C18 column (20×2.1 mm cartridge, Mobile phase A: Water/1 M ammonium bicarbonate, 2000:10 v/v, Mobile Phase B: MeOH/1 M ammonium bicarbonate, 2000:10 v/v). The eluted analytes are detected by LC-MS-MS analysis using a Sciex API 4000 triple quadrupole mass spectrometer. Concentrations of compounds in plasma are determined from standards prepared under identical conditions. […]

T1 sequence (P11802 whole entry): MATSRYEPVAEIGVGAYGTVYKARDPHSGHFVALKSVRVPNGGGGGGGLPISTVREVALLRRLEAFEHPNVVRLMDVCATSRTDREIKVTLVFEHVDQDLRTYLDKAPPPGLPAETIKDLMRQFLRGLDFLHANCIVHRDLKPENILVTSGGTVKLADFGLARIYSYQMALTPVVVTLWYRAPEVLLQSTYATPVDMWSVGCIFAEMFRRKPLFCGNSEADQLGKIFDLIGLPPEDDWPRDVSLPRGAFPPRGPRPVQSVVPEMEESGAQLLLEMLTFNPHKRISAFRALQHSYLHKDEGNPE
T1 sequence (P30281 whole entry partner): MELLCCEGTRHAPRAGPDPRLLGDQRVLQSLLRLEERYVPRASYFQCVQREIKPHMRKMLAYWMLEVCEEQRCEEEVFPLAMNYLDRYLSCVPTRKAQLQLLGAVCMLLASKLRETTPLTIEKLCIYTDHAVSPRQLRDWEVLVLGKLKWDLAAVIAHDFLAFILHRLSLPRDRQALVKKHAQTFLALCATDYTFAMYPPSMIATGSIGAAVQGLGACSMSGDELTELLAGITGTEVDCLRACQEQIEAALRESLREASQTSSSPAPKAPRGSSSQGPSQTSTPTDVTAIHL

Row | IC50 (CDK4) | IC50 (Pim-1) | IC50 [1] | SMILES | bioavailability [2]
1 | 3 nM | 3 nM | ~100 nM | CCN1CCC(Cc2ccc(Nc3ncc(F)c(-c4cc(F)c5nc(C)n(C(C)C)c5c4)n3)nc2C)CC1 [Example 25, [5-(1-Ethyl-piperidin-4-ylmethyl)-6-methyl-pyridin-2-yl]-[5-fluoro-4-(7-fluoro-3-isopropyl-2-methyl-3H-benzoimidazol-5-yl)-pyrimidin-2-yl]-amine methanesulfonate] | –
2 | – | – | – | CS(=O)(=O)O.Cc1nc2ccc(-c3nc(Nc4ccc(C5CCN(C(C)C)CC5)cn4)ncc3F)cc2n1C1CCCC1 [Example 22, [4-(3-Cyclopentyl-2-methyl-3H-benzoimidazol-5-yl)-5-fluoro-pyrimidin-2-yl]-(1′-isopropyl-1′,2′,3′,4′,5′,6′-hexahydro-[3,4′]bipyridinyl-6-yl)-amine methanesulfonate] | 48.5%
